Measured values as given in patent US6787518B1, “Therapeutics of osteoarthritis and inflammatory joint disease” (priority 1995, dated 2004).

Legend:
[1] = tested on: chondrocytes; test: Growth of chondrocytes cultured in a centrifugal tube (DNA content); assay type: cell-based, rabbit; conditions: 10^−7 M added on 8th day, up to 28 days; 10^−10 to 10^−7 M, 21st day; FIG. 3, 4
Description: In the following Examples, grown chondrocytes were separated from the subchondral bone to bone transition area of rabbits 4 weeks old from birth by the method of Shimomura et al. (Shimomura, Y. et al., Calcif. Tissue Res. 19, 179-187, 1975). The separated chondrocytes were cultivated by the method of Iwamoto et al. (Iwamoto, M. et al. Dev. Biol. 136 500-507, 1989) and the method of Kato et al. (Kato, Y. et al. Endocrinology, 127, 114-118, 1990). Stated specifically, the separated chondrocytes were suspended in an Eagle's minimum essential medium (MEM) to give a concentration of 8×10^4 cells/mL in the presence of 10% fetal bovine serum (FBS) and 50 μg/mL of ascorbic acid and then seeded in 1-mL portions into 15-mL plastic centrifugal tubes (Corning). After 5-min centrifugation (at 1,500 rpm), the cells were cultivated in a CO2 gas incubator having a temperature setting of 37° C. Starting on the 6th day of the cultivation, medium changes were made every other day. […]
As in Example 1, chondrocytes were cultured in a centrifugal tube. […] After the cultivation, the cells were solubilized at appropriate intervals and the time-dependent changes in DNA content were measured. In another experiment, PTHrP was added at varying concentrations from 10^−10 to 10^−7 M and the DNA content on the 21st day of the cultivation was measured.

[2] = tested on: chondrocytes; test: Alkaline phosphatase (ALP) activity of chondrocytes cultured in a centrifugal tube; assay type: cell-based, rabbit
Description: (§1) In the following Examples, grown chondrocytes were separated from the subchondral bone to bone transition area of rabbits 4 weeks old from birth by the method of Shimomura et al. (Shimomura, Y. et al., Calcif. Tissue Res. 19, 179-187, 1975). The separated chondrocytes were cultivated by the method of Iwamoto et al. (Iwamoto, M. et al. Dev. Biol. 136 500-507, 1989) and the method of Kato et al. (Kato, Y. et al. Endocrinology, 127, 114-118, 1990). Stated specifically, the separated chondrocytes were suspended in an Eagle's minimum essential medium (MEM) to give a concentration of 8×10^4 cells/mL in the presence of 10% fetal bovine serum (FBS) and 50 μg/mL of ascorbic acid and then seeded in 1-mL portions into 15-mL plastic centrifugal tubes (Corning). After 5-min centrifugation (at 1,500 rpm), the cells were cultivated in a CO2 gas incubator having a temperature setting of 37° C. Starting on the 6th day of the cultivation, medium changes were made every other day. The presence of PTHrP receptors in the chondrocytes was verified by SDS gel electrophoresis. Stated specifically, the chondrocytes cultured for 14 days were homogenized and incubated with ^125I labelled PTHrP for 5 h. The PTHrP binding to the receptors was crosslinked with DSS, solubilized with a SDS buffer solution and electrophoresed through a SDS gel. After the electrophoresis, autoradiography was performed in the usual manner. As a control, excess PTHrP, was added to prevent the binding of ^125I labelled PTHrP to the receptors and the unbound PTHrP was electrophoresed by the same procedure and subjected to autoradiography.
As in Example 1, chondrocytes were cultured in a centrifugal tube. On the 8th day of the cultivation, 10^−7 M of PTHrP was added and the cultivation was continued for a period of up to 28 days. On the 21st day of the cultivation, a PTHrP free group was set and compared with the PTHrP treated group. In another experiment, PTHrP was added in varying amounts from […] and the dose-response relationship with the alkaline phosphatase activity (ALP activity) was verified. For the measurement of ALP activity, chondrocyte clusters were homogenized in 0.2% Triton X-100, centrifuged at 12,000 xg for 15 min and the supernatant was assayed by the method of Bessey et al. (Bessey O. A. et al., J. Biol. Chem. 164, 321-329, 1946). To investigate the progress of calcification, 0.5 μCi of ^45Ca was added at suitable intervals and its incorporation into the chondrocytes after 24 h, as well as the Ca level on the 28th day of the cultivation were measured.

[3] = biological target: T1, PTHrP receptors (Oryctolagus cuniculus, UniProt G1T397); test: Binding of 125I labelled PTHrP to receptors in chondrocyte homogenate (DSS crosslinking, SDS gel electrophoresis, autoradiography); set-up: species or system rabbit; conditions: addition of excess PTHrP; chondrocytes cultured 14 days, homogenized; FIG. 1
T1 construct: the chondrocytes cultured for 14 days were homogenized and incubated with ^125I labelled PTHrP for 5 h; endogenous in cells; host or cells: primary rabbit growth-plate chondrocytes, 14-day pellet culture, homogenized
T1 sequence (G1T397 29-589): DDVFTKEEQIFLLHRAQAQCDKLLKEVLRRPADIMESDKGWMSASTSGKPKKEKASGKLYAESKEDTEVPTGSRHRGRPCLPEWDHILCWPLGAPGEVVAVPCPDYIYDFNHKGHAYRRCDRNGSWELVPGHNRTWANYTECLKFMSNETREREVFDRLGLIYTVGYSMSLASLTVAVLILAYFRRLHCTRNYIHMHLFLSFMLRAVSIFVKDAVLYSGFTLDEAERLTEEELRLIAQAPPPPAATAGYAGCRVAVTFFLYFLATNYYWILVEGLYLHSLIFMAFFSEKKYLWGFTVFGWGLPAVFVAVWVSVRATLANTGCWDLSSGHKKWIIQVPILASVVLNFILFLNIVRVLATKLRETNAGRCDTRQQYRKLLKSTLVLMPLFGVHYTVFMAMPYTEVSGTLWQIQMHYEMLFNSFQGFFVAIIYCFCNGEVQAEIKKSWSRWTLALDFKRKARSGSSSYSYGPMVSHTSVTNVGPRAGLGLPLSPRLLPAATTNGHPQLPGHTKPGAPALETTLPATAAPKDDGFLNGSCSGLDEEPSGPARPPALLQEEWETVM
Description: as §1, with “After the electrophoresis, autoradiography was performed in the usual manner. As a control, excess PTHrP, was added to prevent the binding of ^125I labelled PTHrP to the receptors and the unbound PTHrP was electrophoresed by the same procedure and subjected to autoradiography.” left out

[4] = tested on: mRNA of type X collagen; test: Expression of mRNA of type X collagen in cultured chondrocytes (hybridization with 32P cDNA probe); assay type: cell-based, rabbit; conditions: 10^−8 and 10^−7 M PTHrP, last 6 days of 30-day cultivation; FIG. 9
Description: (§2) As in Example 1, grown chondrocytes were separated from the subchondral bone to bone transition area of rabbits 4 weeks old from birth by the method of Shimomura et al. (Shimomura, Y. et a., Calcif. Tissue Res. 19, 179-187, 1975). The separated chondrocytes were suspended in an Eagle's minimum essential medium (MEM) containing 10% fetal bovine serum and 50 μg/mL of ascorbic acid and seeded on a 3.5-cm Petri dish coated with type I collagen, each well containing 5,000 cells. Following 30-day cultivation, 10^−8 and 10^−7 M of PTHrP was brought into action for the last 6 days. RNA was prepared from the cultured cells by the CsTFA method (Smale and Sasse, Anal. Biochem. 203, 352-356. 1992), separated by electrophoresis and thereafter transferred onto a membrane. The membrane onto which the RNA had been transferred was hybridized with a ^32P labelled cDNA probe for type X and II collagens.

[5] = tested on: grown chondrocytes; test: Cartilage matrix proteoglycan synthesis (incorporation of labelled sulfuric acid) in cultured chondrocytes; assay type: cell-based, rabbit; conditions: FIG. 2
Description: As in Example 1, grown chondrocytes were separated from the subchondral bone to bone transition area of rabbits 4 weeks old from birth by the method of Shimomura et al. (Shimomura, Y. et al., Calcif. Tissue Res. 19, 179-187, 1975). The separated chondrocytes were suspended in an Eagle's minimum essential medium (MEM) containing 10% fetal bovine serum and 50 μg/mL of ascorbic acid and seeded in a 96-well culture plate at a concentration of 5,000 cells in each well. When the cells became confluent, PTHrP was added and, one day later, 1 μCi of […] was added per well, followed by 17-h cultivation. The amount of cartilage matrix produced in the supernatant of the culture solution was measured by the method of Kato et al. (Kato, Y. et al., Endocrinology 122, 1991-1997, 1988). Briefly, the quantity of […] incorporated into proteoglycans was measured.

[6] = tested on: mRNA of type II collagen; test: Expression of mRNA of type II collagen in cultured chondrocytes (hybridization with 32P cDNA probe); assay type: cell-based, rabbit; conditions: 10^−8 or 10^−7 M PTHrP, last 6 days of 30-day cultivation; FIG. 9
Description: as §2

[7] = tested on: chondrocytes; test: Calcification of chondrocytes (45Ca incorporation, Ca level) in centrifugal tube culture; assay type: cell-based, rabbit
Description: as §1
As in Example 1, chondrocytes were cultured in a centrifugal tube. On the 8th day of the cultivation, 10^−7 M of PTHrP was added and the cultivation was continued for a period of up to 28 days. […] To investigate the progress of calcification, 0.5 μCi of ^45Ca was added at suitable intervals and its incorporation into the chondrocytes after 24 h, as well as the Ca level on the 28th day of the cultivation were measured.

Which “DNA content of the chondrocytes” value [1] does the source give for “PTHrP: human 1-34PTHrP purchased from the Peptide Institute, Inc.; partial peptide of PTHrP, 34 amino acids from the N terminus” here?
Its value is “not influenced at all”.

What about the “ALP activity of the chondrocytes” value ([2]; 10^−7 M PTHrP added on 8th day, up to 28 days, PTHrP Treated Group, FIG. 5) of the same substance?
The value was “suppressed”.

And the ALP activity ([2]; 10^−8 M PTHrP, FIG. 6)?
The ALP activity was “suppressed almost completely”.

What about the “ALP activity after PTHrP was eliminated from the culture solution” value ([2]; PTHrP removed on 21st day of cultivation, PTHrP Free Group, FIG. 5) of the same substance?
Its value is “restored to the level of the control group”.

What about the “concentration at which PTHrP started to suppress the ALP activity” value ([2]; dose response, 21st day, FIG. 6) of the same substance?
Its value is “above 10^−9 M”.

And the “binding of 125I labelled PTHrP to the receptors” value [3]?
The value was “completely prevented”.

What about the “expression of the mRNA of type X collagen” value [4] of the same substance?
Its value is “significantly inhibited”.

And the “matrix synthesizing capability relative to control (incorporation of 35S-sulfuric acid into proteoglycans)” value ([5]; 10^−6 M PTHrP)?
The value was “about 3 times”.

And the “incorporation of 35S-sulfuric acid into proteoglycans” value ([5]; 10^−10 to 10^−6 M PTHrP, dose response)?
The value was “accelerated the incorporation of ^35S-sulfuric acid into proteoglycans in a dose-dependent manner”.

What about the “expression of the mRNA of type II collagen” value [6] of the same substance?
Its value is “no effects”.

What about the “incorporation of 45Ca into the chondrocytes” value ([7]; 10^−7 M PTHrP, PTHrP Treated Group, FIG. 7) of the same substance?
Its value is “suppressed”.

What about the “effect on 45Ca incorporation when PTHrP was removed” value ([7]; PTHrP Free Group, FIG. 7) of the same substance?
Its value is “soon disappeared”.

What about the calcification of chondrocytes ([7]; concentrations higher than 10^−8 M PTHrP, FIG. 8) of the same substance?
The calcification of chondrocytes was “completely suppressed”.
